In patent US20260256925A1, “INDAZOLE DERIVATIVES AS ESTROGEN RECEPTOR DEGRADERS” (REGENTS OF THE UNIVERSITY OF MICHIGAN, priority 2022, published 2026):

What was measured:
ER = target: T1, ER (Homo sapiens, UniProt P03372); experiment: In-cell western blot analysis, relative ER percentage (compounds B1-B126); type: cell-based; settings: ER degradation, 16 hours, read-out: ICW DC50
T1 construct: endogenous in cells; probably T47D or MCF-7
T1 sequence (P03372 1-595): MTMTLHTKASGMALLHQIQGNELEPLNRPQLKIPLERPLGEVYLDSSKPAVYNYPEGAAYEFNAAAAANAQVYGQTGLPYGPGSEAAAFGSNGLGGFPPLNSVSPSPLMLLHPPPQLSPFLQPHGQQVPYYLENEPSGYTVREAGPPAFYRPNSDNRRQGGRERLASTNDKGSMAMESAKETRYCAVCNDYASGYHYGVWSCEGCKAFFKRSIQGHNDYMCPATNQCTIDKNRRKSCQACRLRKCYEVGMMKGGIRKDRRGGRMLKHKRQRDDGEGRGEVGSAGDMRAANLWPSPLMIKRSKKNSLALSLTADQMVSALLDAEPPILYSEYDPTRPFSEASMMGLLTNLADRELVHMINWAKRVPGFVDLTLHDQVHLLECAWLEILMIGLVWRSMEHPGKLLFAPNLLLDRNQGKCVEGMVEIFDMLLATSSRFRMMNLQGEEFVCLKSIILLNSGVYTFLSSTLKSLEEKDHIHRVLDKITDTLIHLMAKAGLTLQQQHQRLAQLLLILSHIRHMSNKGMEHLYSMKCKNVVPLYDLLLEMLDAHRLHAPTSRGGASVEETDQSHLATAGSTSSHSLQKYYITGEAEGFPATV
How it was run: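 Readout was a two-colour infrared in-cell western of formaldehyde-fixed cells after 16 h compound exposure at 0.5% DMSO, with 40,000 or 10,000 cells/well plated the previous night. Relative ER percentage compares treated wells against untreated/DMSO-treated wells taken as 100%.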

[1] = Cell growth assay, WST-8 (compounds B1-B126); type: cell-based; settings: 96 h; T47D cell line, WST-8, 4 days; read-out: Cell growth inhibition in T47D cell line IC50
How it was run: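 Read-out is WST-8 absorbance at 450 nm (2.5 h, 37° C) as a fraction of vehicle control, from three separate repeats. Compound exposure lasted 4 days, starting one day after plating 1500 cells/well.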

SMILES	DC50 (ER)	IC50 [1]
C[C@@H]1Cc2c(ccc3[nH]ncc23)[C@@H](c2c(F)cc(NC3CC4(C3)CN(CC(=O)N3Cc5cc6c(cc5C3)C(=O)N(C3CCC(=O)NC3=O)C6=O)C4)cc2F)N1CC(F)F (stereo partly drawn) [Compound B45, 6-(2-(6-((4-((6S,8R)-7-(2,2-difluoroethyl)-8-methyl-6,7,8,9-tetrahydro-3H-pyrazolo[4,3-f]isoquinolin-6-yl)-3,5-difluorophenyl)amino)-2-azaspiro[3.3]heptan-2-yl)acetyl)-2-(2,6-dioxopiperidin-3-yl)-6,7-dihydropyrrolo[3,4-f]isoindole-1,3(2H,5H)-dione]	0.01 to 0.1 µM	0.001 to 0.01 µM
C[C@@H]1Cc2c(ccc3[nH]ncc23)[C@@H](c2c(F)cc(NC3CN(C(=O)CN4CCN5c6cc7c(cc6OC[C@@H]5C4)C(=O)N(C4CCC(=O)NC4=O)C7)C3)cc2F)N1CC(F)F (stereo partly drawn) [Compound B26, 3-((S)-3-(2-(3-((4-((6S,8R)-7-(2,2-difluoroethyl)-8-methyl-6,7,8,9-tetrahydro-3H-pyrazolo[4,3-f]isoquinolin-6-yl)-3,5-difluorophenyl)amino)azetidin-1-yl)-2-oxoethyl)-8-oxo-1,2,3,4,4a,5,8,10-octahydro-9H-pyrazino[1′,2′:4,5][1,4]oxazino[2,3-f]isoindol-9-yl)piperidine-2,6-dione]	< 0.01 µM	< 0.001 µM
COc1c2c(cc3c1CN(C1CCC(=O)NC1=O)C3=O)CN(CC(=O)N1CCC3(CC1)CCN(c1cc(F)c([C@@H]4c5ccc6[nH]ncc6c5C[C@@H](C)N4CC(F)F)c(F)c1)CC3)C2 (stereo partly drawn) [Compound B72, 3-(6-(2-(9-(4-((6S,8R)-7-(2,2-difluoroethyl)-8-methyl-6,7,8,9-tetrahydro-3H-pyrazolo[4,3-f]isoquinolin-6-yl)-3,5-difluorophenyl)-3,9-diazaspiro[5.5]undecan-3-yl)-2-oxoethyl)-4-methoxy-1-oxo-3,5,6,7-tetrahydropyrrolo[3,4-f]isoindol-2(1H)-yl)piperidine-2,6-dione]	< 0.01 µM	0.001 to 0.01 µM
C[C@@H]1Cc2c(ccc3[nH]ncc23)[C@@H](c2c(F)cc(N3CCN(C(=O)CN4CCN5c6cc7c(cc6OC[C@@H]5C4)C(=O)N(C4CCC(=O)NC4=O)C7)CC3)cc2F)N1CC(F)F (some centres unmarked) [Compound B31]	0.01 to 0.1 µM	< 0.001 µM
C[C@@H]1Cc2c(ccc3[nH]ncc23)[C@@H](c2cnc(N3CCC4(CCC(CN5CCN6c7ccc8c(c7OC[C@H]6C5)CN([C@H]5CCC(=O)NC5=O)C8=O)CO4)CC3)nc2)N1CC(F)(F)F (stereo partly drawn) [Compound B125, (3S)-3-((5aR)-7-((9-(5-((6S,8R)-8-methyl-7-(2,2,2-trifluoroethyl)-6,7,8,9-tetrahydro-3H-pyrazolo[4,3-f]isoquinolin-6-yl)pyrimidin-2-yl)-1-oxa-9-azaspiro[5.5]undecan-3-yl)methyl)-1-oxo-1,3,5,5a,6,7,8,9-octahydro-2H-pyrazino[1′,2′:4,5][1,4]oxazino[2,3-e]isoindol-2-yl)piperidine-2,6-dione]	< 0.01 µM	< 0.001 µM
C[C@@H]1Cc2c(ccc3[nH]ncc23)[C@@H](c2c(F)cc(N3CCC4(CCN(C(=O)CN5CCN6c7cc8c(cc7OC[C@@H]6C5)C(=O)N(C5CCC(=O)NC5=O)C8)CC4)C3)cc2F)N1CC(F)F (stereo partly drawn) [Compound B23, 3-((S)-3-(2-(2-(4-((6S,8R)-7-(2,2-difluoroethyl)-8-methyl-6,7,8,9-tetrahydro-3H-pyrazolo[4,3-f]isoquinolin-6-yl)-3,5-difluorophenyl)-2,8-diazaspiro[4.5]decan-8-yl)-2-oxoethyl)-8-oxo-1,2,3,4,4a,5,8,10-octahydro-9H-pyrazino[1′,2′:4,5][1,4]oxazino[2,3-f]isoindol-9-yl)piperidine-2,6-dione]	< 0.01 µM	< 0.001 µM
COc1cc(N2CCC3(CC2)CC(CN2CCN4c5ccc6c(c5OC[C@H]4C2)CN(C2CCC(=O)NC2=O)C6=O)C3)ccc1[C@@H]1c2ccc3[nH]ncc3c2C[C@@H](C)N1CC(F)F (stereo partly drawn) [Compound B82, 3-((R)-7-((7-(4-((6S,8R)-7-(2,2-difluoroethyl)-8-methyl-6,7,8,9-tetrahydro-3H-pyrazolo[4,3-f]isoquinolin-6-yl)-3-methoxyphenyl)-7-azaspiro[3.5]nonan-2-yl)methyl)-1-oxo-1,3,5,5a,6,7,8,9-octahydro-2H-pyrazino[1′,2′:4,5][1,4]oxazino[2,3-e]isoindol-2-yl)piperidine-2,6-dione]	0.01 to 0.1 µM	< 0.001 µM
C[C@@H]1Cc2c(ccc3[nH]ncc23)[C@@H](c2ccc(N3CCC4(CCN(C(=O)CN5Cc6cc7c(cc6C5)C(=O)N(C5CCC(=O)NC5=O)C7=O)CC4)CC3)cn2)N1CC(F)F (stereo partly drawn) [Compound B49, 6-(2-(9-(6-((6S,8R)-7-(2,2-difluoroethyl)-8-methyl-6,7,8,9-tetrahydro-3H-pyrazolo[4,3-f]isoquinolin-6-yl)pyridin-3-yl)-3,9-diazaspiro[5.5]undecan-3-yl)-2-oxoethyl)-2-(2,6-dioxopiperidin-3-yl)-6,7-dihydropyrrolo[3,4-f]isoindole-1,3(2H,5H)-dione]	0.01 to 0.1 µM	> 0.01 µM
C[C@@H]1Cc2c(ccc3[nH]ncc23)[C@@H](c2c(F)cc(NC3CN(CC(=O)N4CCN5c6ccc7c(c6OC[C@H]5C4)CN(C4CCC(=O)NC4=O)C7=O)C3)cc2F)N1CC(F)F (stereo partly drawn) [Compound B101, 3-((R)-7-(2-(3-((4-((6S,8R)-7-(2,2-difluoroethyl)-8-methyl-6,7,8,9-tetrahydro-3H-pyrazolo[4,3-f]isoquinolin-6-yl)-3,5-difluorophenyl)amino)azctidin-1-yl)acetyl)-1-oxo-1,3,5,5a,6,7,8,9-octahydro-2H-pyrazino[1′,2′:4,5][1,4]oxazino[2,3-e]isoindol-2-yl)piperidine-2,6-dione]	< 0.01 µM	0.001 to 0.01 µM
C[C@H]1Cc2c(ccc3[nH]ncc23)[C@H](c2ccc(NC3CN(CC(=O)N4CCN5c6cc7c(cc6OC[C@@H]5C4)C(=O)N(C4CCC(=O)NC4=O)C7)C3)cn2)N1CC(F)(F)F (stereo partly drawn) [Compound B43, 3-((S)-3-(2-(3-((6-((6R,8S)-8-methyl-7-(2,2,2-trifluoroethyl)-6,7,8,9-tetrahydro-3H-pyrazolo[4,3-f]isoquinolin-6-yl)pyridin-3-yl)amino)azetidin-1-yl)acetyl)-8-oxo-1,2,3,4,4a,5,8,10-octahydro-9H-pyrazino[1′,2′:4,5][1,4]oxazino[2,3-f]isoindol-9-yl)piperidine-2,6-dione]	0.01 to 0.1 µM	0.001 to 0.01 µM
C[C@@H]1Cc2c(ccc3[nH]ncc23)[C@@H](c2ccc(N3CC4(CCC(CN5CCN6c7cc8c(cc7N(C)C[C@@H]6C5)C(=O)N(C5CCC(=O)NC5=O)C8)CC4)C3)cn2)N1CC(F)(F)F (stereo partly drawn) [Compound B59, 3-((S)-6-methyl-3-((2-(6-((6S,8R)-8-methyl-7-(2,2,2-trifluoroethyl)-6,7,8,9-tetrahydro-3H-pyrazolo[4,3-f]isoquinolin-6-yl)pyridin-3-yl)-2-azaspiro[3.5]nonan-7-yl)methyl)-8-oxo-2,3,4,4a,5,6,8,10-octahydropyrazino[1,2-a]pyrrolo[3,4-g]quinoxalin-9(1H)-yl)piperidine-2,6-dione]	< 0.01 µM	0.001 to 0.01 µM
C[C@@H]1Cc2c(ccc3[nH]ncc23)[C@@H](c2ccc(N3CCC4(CC3)CC(CN3CCN5c6ccc(C(=O)N[C@H]7CCC(=O)NC7=O)nc6OC[C@H]5C3)C4)cn2)N1CC(F)(F)F [Compound B89, (R)-N-((S)-2,6-dioxopiperidin-3-yl)-3-((7-(6-((6S,8R)-8-methyl-7-(2,2,2-trifluoroethyl)-6,7,8,9-tetrahydro-3H-pyrazolo[4,3-f]isoquinolin-6-yl)pyridin-3-yl)-7-azaspiro[3.5]nonan-2-yl)methyl)-1,2,3,4,4a,5-hexahydropyrazino[1,2-d]pyrido[2,3-b][1,4]oxazine-8-carboxamide]	> 0.1 µM	> 0.01 µM
C[C@@H]1Cc2c(ccc3[nH]ncc23)[C@@H](c2c(F)cc(N3CCC4(CN(CC(=O)N5CCN6c7cc8c(cc7OC[C@@H]6C5)C(=O)N(C5CCC(=O)NC5=O)C8)C4)C3)cc2F)N1CC(F)F (stereo partly drawn) [Compound B41, 3-((S)-3-(2-(6-(4-((6S,8R)-7-(2,2-difluoroethyl)-8-methyl-6,7,8,9-tetrahydro-3H-pyrazolo[4,3-f]isoquinolin-6-yl)-3,5-difluorophenyl)-2,6-diazaspiro[3.4]octan-2-yl)acetyl)-8-oxo-1,2,3,4,4a,5,8,10-octahydro-9H-pyrazino[1′,2′:4,5][1,4]oxazino[2,3-f]isoindol-9-yl)piperidine-2,6-dione]	< 0.01 µM	< 0.001 µM
